Test system: Cells
Assay: Cell viability, CTG luminescence, 72 h (Example 7, Experiment 1)
Assay type: cell-based
Method: Cells were cultured in the appropriate medium at 37° C. and 5% CO2 atmosphere. Cells were harvested by trypsinization, spun at 800 rpm for 5 min and resuspended in medium. The cell concentration was adjusted with medium and seeded at a cell density of 3000 cells in 90 μL per well in 96-well plates, and incubated overnight at 37° C. and 5% CO2. After 24 hours, the 1 mM test compound (either Compound 1 or DON) was successively diluted into 7 concentrations according to a three-fold gradient respectively, and 10 μl/well drug was added. The final concentrations were 100 μM, 33.33 μM, 11.11 μM, 3.7 μM, 1.24 μM, 0.41 μM, 0.14 μM, and 0.046 μM. The 100 μM Positive Control drug was successively diluted in 7 concentrations according to a three-fold gradient, and 10 μl/well drug was added. The final concentrations were 10 μM, 3.333 μM, 1.111 μM, 0.37 μM, 0.124 μM, 0.041 μM, 0.014 μM and 0.0046 μM. Cells were incubated for 72 h at 37° C. and 5% CO2. 100 μL CTG reagent was then added to each well. Plates were shaken for 2 min and placed 10 min at room temperature. Luminescence was recorded on Perkin Elmer Envision 2104 Multilabel Reader. IC50's were obtained by fitting curve using GraphPad Prism5 software. In all cases the treatment time was 72 h.

[1] = Homo sapiens, BT-474, 72 h, BT-474
[2] = Homo sapiens, BT-549, 72 h, BT-549
[3] = Homo sapiens, CAPAN-1, 72 h, Capan-1
[4] = Homo sapiens, HCC1395, 72 h, HCC1395
[5] = Homo sapiens, HCC1806, 72 h, HCC1806
[6] = Homo sapiens, HCC1937, 72 h, HCC1937
[7] = Homo sapiens, HCC1954, 72 h, HCC1954
[8] = Homo sapiens, HGC-27, 72 h, HGC-27
[9] = Homo sapiens, HL-60, 72 h, HL60
[10] = Homo sapiens, Huh-7, 72 h, HuH-7
[11] = Homo sapiens, KARPAS-299, 72 h, KARPAS-299
[12] = Homo sapiens, KATO III, KATO-III
[13] = Homo sapiens, LN-18, 72 h, LN-18
[14] = Homo sapiens, MDA-MB-231, 72 h, MDA-MB-231
[15] = Homo sapiens, MDA-MB-361, 72 h, MDA-MB-361
[16] = Homo sapiens, MKN-45, 72 h, MKN-45
[17] = Homo sapiens, MOLT-4, 72 h, MOLT-4
[18] = Homo sapiens, NCI-H23, 72 h, NCI-H23
[19] = Homo sapiens, NCI-H226, 72 h, NCI-H226
[20] = Homo sapiens, NCI-H358, 72 h, NCI-H358
[21] = Homo sapiens, NCI-H661, 72 h, NCI-H661
[22] = Homo sapiens, NCI-H929, 72 h, NCI-H929
[23] = Homo sapiens, NCI-H1299, 72 h, NCI-H1299
[24] = Homo sapiens, NCI-H1650, 72 h, NCI-H1650
[25] = Homo sapiens, OVCAR-3, 72 h, OVCAR-3
[26] = Homo sapiens, RPMI-7951, 72 h, RPMI-7951
[27] = Homo sapiens, SK-MES-1, 72 h, SK-MES-1
[28] = Homo sapiens, SNB-19, 72 h, SNB-19
[29] = Homo sapiens, SNU-449, 72 h, SNU-449
[30] = Homo sapiens, SW480, 72 h, SW480
[31] = Homo sapiens, U-937, 72 h, U-937
[32] = Homo sapiens, ZR-75-1, 72 h, ZR-75-1
[33] = Homo sapiens, ZR-75-30, 72 h, ZR-75-30

CC(=O)N[C@@H](Cc1c[nH]c2ccccc12)C(=O)N[C@@H](CCC(=O)C=[N+]=[N-])C(=O)OC(C)C [Compound 1, Isopropyl (S)-2-((S)-2-acetamido-3-(1H-indol-3-yl)propanamido)-6-diazo-5-oxohexanoate]
IC50 (AGS): 19.9 µM
IC50 (C3A): 8.39 µM
IC50 (Homo sapiens, 143B): 2.44 µM
IC50 (Homo sapiens, 769-P): 2.08 µM
IC50 [1]: 9.8 µM
IC50 [2]: 30.8 µM
IC50 [3]: 29.3 µM
IC50 (Homo sapiens, Daudi): 1.07 µM
IC50 [4]: 59.8 µM
IC50 [5]: 3.86 µM
IC50 [6]: 156 µM
IC50 [7]: 3.33 µM
IC50 [8]: 13.3 µM
IC50 [9]: 2.03 µM
IC50 [10]: 1.27 µM
IC50 (Homo sapiens, Jurkat): 0.656 µM
IC50 [11]: 0.636 µM
IC50 [12]: 10.7 µM
IC50 [13]: 4.15 µM
IC50 [14]: 2.88 µM
IC50 [15]: 117 µM
IC50 (Homo sapiens, MDA-MB-435S): 45.4 µM
IC50 [16]: 1.65 µM
IC50 [17]: 3.03 µM
IC50 (Homo sapiens, Malme-3M): 19.9 µM
IC50 [18]: 3.53 µM
IC50 [19]: 14.5 µM
IC50 (Homo sapiens, NCI-H322M): 49.1 µM
IC50 [20]: 9.61 µM
IC50 [21]: 131 µM
IC50 [22]: 13.8 µM
IC50 [23]: 9.2 µM
IC50 [24]: 6.61 µM
IC50 [25]: 34.1 µM
IC50 [26]: 0.894 µM
IC50 (Homo sapiens, Raji): 3.13 µM
IC50 (Homo sapiens, SH-SY5Y): 9.1 µM
IC50 [27]: 71.5 µM
IC50 [28]: 3.21 µM
IC50 [29]: 38.6 µM
IC50 [30]: 88.1 µM
IC50 (Homo sapiens, T98G): 3.39 µM
IC50 [31]: 0.811 µM
IC50 [32]: 137 µM
IC50 [33]: 282 µM
IC50 (NAMALWA): 1.05 µM
IC50 (RKO): 3.64 µM
IC50 (T84): 125 µM
IC50 (TT): 77.1 µM
IC50 (U266B1): 0.451 µM

[N-]=[N+]=CC(=O)CC[C@H](N)C(=O)O [DON, 6-Diazo-5-oxo-L-norleucine, reference compound]
IC50 (AGS): 13.8 µM
IC50 (C3A): 2.4 µM
IC50 (Homo sapiens, 143B): 1.06 µM
IC50 (Homo sapiens, 769-P): 1.85 µM
IC50 [1]: 15.1 µM
IC50 [2]: 5.82 µM
IC50 [3]: 67.5 µM
IC50 (Homo sapiens, Daudi): 0.388 µM
IC50 [4]: 32.3 µM
IC50 [5]: 0.72 µM
IC50 [6]: 156 µM
IC50 [7]: 0.951 µM
IC50 [8]: 10 µM
IC50 [9]: 3.61 µM
IC50 [10]: 5.94 µM
IC50 (Homo sapiens, Jurkat): 0.368 µM
IC50 [11]: 0.309 µM
IC50 [12]: 2.96 µM
IC50 [13]: 2.71 µM
IC50 [14]: 1.78 µM
IC50 [15]: 235 µM
IC50 (Homo sapiens, MDA-MB-435S): 64.4 µM
IC50 [16]: 7.52 µM
IC50 [17]: 2.38 µM
IC50 (Homo sapiens, Malme-3M): 36.6 µM
IC50 [18]: 1.66 µM
IC50 [19]: 1.87 µM
IC50 (Homo sapiens, NCI-H322M): 4.78 µM
IC50 [20]: 0.974 µM
IC50 [21]: 70.6 µM
IC50 [22]: 11.8 µM
IC50 [23]: 1.82 µM
IC50 [24]: 1.89 µM
IC50 [25]: 31 µM
IC50 [26]: 3.47 µM
IC50 (Homo sapiens, Raji): 2.04 µM
IC50 (Homo sapiens, SH-SY5Y): 4.71 µM
IC50 [27]: 145 µM
IC50 [28]: 2.03 µM
IC50 [29]: 2.18 µM
IC50 [30]: 100 µM
IC50 (Homo sapiens, T98G): 1.38 µM
IC50 [31]: 0.566 µM
IC50 [32]: 101 µM
IC50 [33]: 982 µM
IC50 (NAMALWA): 0.333 µM
IC50 (RKO): 3.22 µM
IC50 (T84): 100 µM
IC50 (TT): 42.9 µM
IC50 (U266B1): 0.413 µM

Source: patent publication US20220117938A1, “COMBINATON THERAPY WITH A DON PRODRUG AND AN IMMUNE CHECKPOINT INHIBITOR” (DRACEN PHARMACEUTICALS, INC., priority 2019, published 2022)
